The text below walks through data of PubChem BioAssay (NCI).

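Five compound concentrations were applied to cells in 96-well plates for 48 hours; endpoints were derived by simple linear interpolation of the resulting dose-response curve. At the TGI there is no net growth.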

Holding throughout (experiment): NCI-60 cell line screen, 48 h
Assay [1] has as its system A549 NSCLC.
Assay [2] deals with EKVX NSCLC.
Assay [3] has as its system HCT-116 colon.
In assay [4] the test system is HT29 colon.
In assay [5] the test system is LOX IMVI melanoma.
In assay [6] the test system is NCI-H522 lung.
In assay [7] the test system is OVCAR-3 ovarian.
Assay [8] has as its system RPMI-8226 leukemia.
Assay [9] has as its system SK-MEL-28 melanoma.
Assay [10] deals with SN12C renal.
Assay [11] deals with SNB-19 CNS.
The subject of assay [12] is UACC-257 melanoma.
Assay [13] has as its system UACC-62 melanoma.
Assay [14] deals with IGROV1 ovarian.
The test system of assay [15] is SK-MEL-2 melanoma.

Take `COc1cc(-c2cc(=O)c3ccccc3[nH]2)cc(OC)c1OC`: the TGI in assay [1], in assay [2], in assay [3], in [4], in [5] and in assay [6] was > 75 µM each time. Besides, the TGI in [7], in [8], in [9], in [10], in [11] and in [12] was > 75 µM each time. In assay [13], the TGI was > 75 µM.
`O=C(O)C12CC3CC(CC(F)(C3)C1)C2`: the TGI in [1], in [2], in assay [3], in [4], in assay [14] and in assay [5] was > 100 µM in each case. Besides, the TGI in [6], in [7], in [8], in assay [15], in assay [9] and in [12] was > 100 µM in each case. Besides, the TGI in assay [13] was > 100 µM.
For the molecule `Cc1nnc(N/N=C(/C(=O)C(C#N)c2ccc(Cl)cc2)C(C#N)c2ccc(Cl)cc2)n1N` (centres undefined), the TGI worked out at 43.9 µM in assay [1]; 61.9 µM in assay [4]; 35.4 µM in assay [5]; 32.3 µM in [6]; 48.8 µM in assay [7]; 45.6 µM in [8]. Besides, the TGI in assay [15] came out at 34.5 µM; in assay [9] it was 33.8 µM; in [10] it was 34.9 µM; in [11], 27.9 µM; in [12] it was 33.1 µM.
Turning to `CCc1ccccc1NC(=O)CC1NC(=O)CS1` (centres undefined), the TGI in [1], in assay [2], in [3], in assay [14], in [5] and in assay [6] was > 100 µM each time. In addition, the TGI in assay [7], in assay [8], in assay [15], in assay [9], in assay [10] and in [11] was > 100 µM each time. Also, the TGI in [12] and in [13] was > 100 µM in each case.
As for `CS(=O)(=O)C1(Br)S(=O)(=O)OCCOS1(=O)=O`, the TGI in [1], in assay [2], in [3], in assay [4], in [14] and in assay [5] was > 100 µM in each case. Also, the TGI in [6], in assay [7], in assay [8], in [15], in assay [9] and in [10] was > 100 µM each time. The TGI in assay [11], in assay [12] and in [13] was > 100 µM in each case.
With `CN(C)CC(/C(Cc1ccccc1)=N\NC(=S)NN)c1ccccc1` (centres undefined), the TGI in assay [1], in [3], in assay [4], in [14], in assay [5] and in assay [6] was > 100 µM each time. For the same molecule, the TGI in [7], in [8], in assay [9], in [10], in assay [11] and in assay [12] was > 100 µM throughout. In addition, the TGI in assay [13] was > 100 µM.
In the case of `O=C(Nc1nc2ncn(CCO)c2c(=O)[nH]1)c1ccccc1`, the TGI in [1], in assay [2], in [3], in [4], in assay [14] and in [5] was > 100 µM each time. In addition, the TGI in assay [6], in [7], in [8], in [15], in assay [9] and in assay [10] was > 100 µM in each case. Also, the TGI in assay [11], in assay [12] and in assay [13] was > 100 µM each time.
Consider `Nc1nc2c(ncn2CCCC(c2ccccc2)P(=O)(O)O)c(=O)[nH]1` (centres undefined), for which the TGI in assay [1], in assay [2], in assay [3], in assay [4], in assay [14] and in assay [5] was > 100 µM in each case. Further, the TGI in assay [6], in assay [7], in assay [8], in assay [15], in assay [9] and in [10] was > 100 µM throughout. Further, the TGI in [11], in assay [12] and in assay [13] was > 100 µM in each case.
For `CC(=O)Nc1ccc(S(=O)(=O)NN(C)S(=O)(=O)c2ccc(C)cc2)cc1`, the TGI in assay [1], in assay [2], in assay [3], in assay [4], in [14] and in assay [6] was > 100 µM throughout. Besides, the TGI in assay [7], in assay [8], in [15], in [9], in [10] and in assay [11] was > 100 µM throughout. Further, the TGI in assay [12] and in assay [13] was > 100 µM in each case.
`COC(=O)c1ccc(C=C(C#N)C#N)cc1`: the TGI in [1] is > 100 µM; in [2], > 100 µM; in assay [3] it was 31.5 µM; in [4], > 100 µM; in assay [14], 73.8 µM; in assay [5], 50.3 µM. In addition, the TGI in assay [6] was determined as 30.1 µM; in [7], 67.5 µM; in [8], 72.6 µM; in assay [15], 38.1 µM; in assay [9], 39.9 µM; in [10], 41.6 µM. Moreover, the TGI is > 100 µM in assay [11] and 57.6 µM in assay [13].
Consider `NC(CCCCNCc1ccccc1O)C(=O)O` (centres undefined), for which the TGI in [1], in assay [2], in assay [3], in assay [4], in assay [14] and in assay [5] was > 100 µM throughout. In addition, the TGI in assay [6], in assay [7], in [8], in assay [15], in assay [9] and in assay [10] was > 100 µM each time. The TGI in [11], in assay [12] and in [13] was > 100 µM each time.
For the molecule `O=C(CC(=O)c1ccccc1)C(=O)Nc1ccc(Cl)cc1`, the TGI is > 100 µM in assay [1]; > 100 µM in assay [2]; > 61.5 µM in assay [3]; > 59.6 µM in assay [4]; > 100 µM in [14]; > 56.7 µM in [5]. Moreover, the TGI in assay [6], in assay [7], in assay [8], in assay [15], in [9] and in assay [10] was > 100 µM in each case. Moreover, the TGI in assay [11], in assay [12] and in assay [13] was > 100 µM in each case.
Consider `COc1ccc(/C=C/c2cc(OC)c(OCc3ccccc3)c(OC)c2)cc1`, for which the TGI in assay [1], in assay [2], in assay [3], in [4], in [14] and in [6] was > 100 µM in each case. Also, the TGI in assay [7], in assay [8], in [15], in assay [9], in assay [10] and in assay [11] was > 100 µM throughout. Also, the TGI in assay [12] and in [13] was > 100 µM throughout.
In the case of `C/C(N=NS(=O)(=O)c1ccc(C)cc1)=C1\C=CC=CN1O`, the TGI in assay [1], in [2], in [3], in assay [4], in [14] and in assay [6] was > 100 µM in each case. Moreover, the TGI in [7], in assay [8], in [9], in assay [10], in assay [11] and in assay [12] was > 100 µM throughout. The TGI in [13] was > 100 µM.
On to `CN(C)C(F)=PC(F)(F)F` (centres undefined), for which the TGI in assay [1], in [2], in assay [3], in assay [4], in assay [14] and in assay [5] was > 100 µM throughout. Besides, the TGI in assay [6], in [8], in assay [15], in assay [9], in assay [10] and in assay [11] was > 100 µM throughout. The TGI in assay [12] and in assay [13] was > 100 µM throughout.
As for `CSc1ccc2c(cc1=O)C(NC(=O)c1ccc(C#N)cc1)CCc1cc(O)c(O)c(O)c1-2` (centres undefined), the TGI in assay [1] was > 100 µM; in assay [2], > 100 µM; in [3], 32.5 µM; in [4], 75.3 µM; in assay [6] it was 40.3 µM; in assay [7], > 100 µM. Besides, the TGI is > 100 µM in assay [9]; 40.3 µM in assay [10]; > 100 µM in assay [11]; 37 µM in assay [12]; 46.3 µM in assay [13].
